Data on 13 compounds can be found in ChEMBL document CHEMBL4482307 (2014).

For orientation: inhibition means the drop in the measured response relative to a control, in per cent. As usually defined, the pIC50 is the negative decadic logarithm of the IC50, by convention in mol/L. By half-life is commonly meant the time needed for the level to fall by half in the phase considered. High values mean slow decline, low ones rapid decline.

Data set [1] has as its target T1, c-Myc/Max (Homo sapiens) (UniProt P01106+P61244). Put plainly: Inhibition of His6-tagged homogeneously purified recombinant Myc bHLH-LZ domain (unknown origin)/His6-tagged Max (151 residues) (unknown origin) interaction assessed as reduction in Myc/Max/DNA ternary complex formation using fluorescently-tagged (FAM) E-Box-containing double-stranded oligonucleotide at 100 uM by EMSA relative to control. In kind it is protein-complex assay. (Mobility shift assays separate free from complexed probe on a gel.)

For data set [2], the system named is HL-60. Description: Antiproliferative activity against human HL60 cells assessed as reduction in cell proliferation incubated for 3 to 4 days by MTT assay. In kind it is functional, cell-based.
For another data set, the system named is Daudi. Put plainly: Antiproliferative activity against human Daudi cells assessed as reduction in cell proliferation incubated for 3 to 4 days by MTT assay. The format is functional, cell-based.
For data set [3], the system named is HL-60. Description: Induction of cell cycle arrest in human HL60 cells assessed as accumulation at S phase at 10 uM incubated for 24 to 48 hrs by propidium iodide staining based flow cytometric analysis (reference value: 50%). The format is functional. (In general: In flow cytometry, cells or beads pass a laser one at a time.)
For data set [4], the system named is HL-60. Put plainly: Induction of cell cycle arrest in human HL60 cells assessed as accumulation at G0/G1 phase at 10 uM incubated for 24 to 48 hrs by propidium iodide staining based flow cytometric analysis (reference value: 36%). The format is functional.
Data set [5] deals with HL-60. Put plainly: Induction of cell cycle arrest in human HL60 cells assessed as accumulation at G0/G1 phase at 5 uM incubated for 24 to 48 hrs by propidium iodide staining based flow cytometric analysis (reference value: 36%). The format is functional.
Data set [6] has as its system HL-60. Description: Induction of cell cycle arrest in human HL60 cells assessed as accumulation at G0/G1 phase incubated for 24 to 48 hrs by propidium iodide staining based flow cytometric analysis. In kind it is functional.
The target of data set [7] is Myc proto-oncogene protein (Homo sapiens) (UniProt P01106). Description: Inhibition of Myc in human HL60 cells co-transfected with Myc-responsive E-box elements assessed as reduction c-Myc promoter-mediated luciferase expression at 10 to 50 uM after 6 hrs. In kind it is cell-based.
Data set [8] relates to HL-60. Put plainly: Induction of cell cycle arrest in human HL60 cells assessed as accumulation at G2/M phase at 5 uM incubated for 24 to 48 hrs by propidium iodide staining based flow cytometric analysis (reference value: 14%). In kind it is functional.
The subject of data set [9] is HL-60. Put plainly: Induction of cell cycle arrest in human HL60 cells assessed as accumulation at G2/M phase at 10 uM incubated for 24 to 48 hrs by propidium iodide staining based flow cytometric analysis (reference value: 14%). The format is functional.
Data set [10] relates to HL-60. Description: Induction of cell cycle arrest in human HL60 cells assessed as accumulation at S phase at 5 uM incubated for 24 to 48 hrs by propidium iodide staining based flow cytometric analysis (reference value: 50%). In kind it is functional.
Another data set addresses c-Myc/Max (Homo sapiens, UniProt P01106). Description: Inhibition of His6-tagged homogeneously purified recombinant Myc bHLH-LZ domain (unknown origin)/His6-tagged Max (151 residues) (unknown origin) interaction assessed as reduction in Myc/Max/DNA ternary complex formation using fluorescently-tagged (FAM) E-Box-containing double-stranded oligonucleotide by EMSA relative to control. In kind it is protein-complex assay.

Data set [11] concerns the target T1, c-Myc/Max (Homo sapiens). Put plainly: Inhibition of Myc/Max protein interaction in human HL60 cells assessed as reduction in Myc/Max heterodimer formation at 1 to 12 uM by co-immunoprecipitation assay. The format is cell-based.
The nature of data set [12]: Half life in plasma (unknown origin). The format is ADME, cell-free.

pIC50: −log10 of the molar value. The source made the active and inactive calls.

With `O=C(O)c1cc([N+](=O)[O-])ccc1Nc1ccccc1-c1ccccc1`, the inhibition at c-Myc/Max (Homo sapiens) [1] was found to be 49%.

As to `CC(C)OC(=O)c1ccc(Nc2ccc([N+](=O)[O-])c3nonc23)cc1`, the negative-log IC50 (pIC50) was 5.03 in the data set on HL-60 [2] and 5.51 in the data set on Daudi.

As to `O=C(O)c1ccc(Nc2ccc([N+](=O)[O-])c3nonc23)cc1`, at c-Myc/Max (Homo sapiens) [1], the inhibition is 93 to 94%.

On to `CC(=O)OCOC(=O)c1ccc(Nc2ccc([N+](=O)[O-])c3nonc23)cc1`, for which the values for the pIC50 in the data set with HL-60 [2] and in the data set on Daudi were 4.50 and 4.51, respectively.

Consider `COC(=O)c1ccc(Nc2ccc([N+](=O)[O-])c3nonc23)c(-c2ccc(C)cc2)c1`, for which the Activity in the data set on HL-60 [3] is 23%; in the data set with HL-60 [4] it was 59.5%; in the data set with HL-60 [5] it was 44%; in the data set on HL-60 [6], “Dose-dependent effect”; with HL-60 [8] it was 12%; with HL-60 [9], 17%. Further, the Activity in the data set on HL-60 [10] stood at 44%. Further, the inhibition result in data set [7] is “Active”.

As for `O=C(Oc1ccccc1)c1ccc(Nc2ccc([N+](=O)[O-])c3nonc23)cc1`, the pIC50 is 4.40 on c-Myc/Max and 5.51 to 5.60 with Daudi. Besides, at c-Myc/Max (Homo sapiens) [11], the inhibition result is “Active”.

For `CCOC(=O)c1ccc(Nc2ccc([N+](=O)[O-])c3nonc23)cc1`, the pIC50 is less than 4.60 with HL-60 [2] and 5.13 in the data set with Daudi.

For `O=[N+]([O-])c1ccc(Nc2cccc(-c3ccccc3)c2)c2nonc12`, at c-Myc/Max (Homo sapiens) [1], the inhibition was 20%.

For `O=[N+]([O-])c1ccc(Nc2ccccc2-c2ccccc2)c2nonc12`, the half-life in data set [12] was 37 min. Also, at c-Myc/Max (Homo sapiens) [1], the inhibition lay in the range of 38 to 39%.

In the case of `O=C(OCC(F)(F)F)c1ccc(Nc2ccc([N+](=O)[O-])c3nonc23)cc1`, the figures for the pIC50 with HL-60 [2] and in the data set on Daudi were 5.07 and 5.72, respectively. The inhibition result at c-Myc/Max (Homo sapiens) [11] is “Active”.

In the case of `COC(=O)c1ccc(Nc2ccc([N+](=O)[O-])c3nonc23)cc1`, the pIC50 in the data set on HL-60 [2] was 4.70; with Daudi, 5.11.

For the compound `O=[N+]([O-])c1ccc(Nc2ccccc2Br)c2nonc12`, the inhibition at c-Myc/Max (Homo sapiens) [1] stood at 39%.

On to `O=C(OCc1ccccc1)c1ccc(Nc2ccc([N+](=O)[O-])c3nonc23)cc1`, for which the pIC50 was 5.14 in the data set with HL-60 [2] and 5.46 with Daudi.
